# Legend:
# ABL1 (64-515) [1] = biological target: T1, ABL1 (64-515) (Homo sapiens, UniProt P00519); test: Radio ABL1 (64-515) radiometric filter-binding assay; type: biochemical
# T1 construct: 3.5 nM ABL (ABL(64-515), produced in-house from E. coli); His6 followed by a PreScission protease cleavage site (N, cleaved yes); made in house; host or cells: E. coli (BL21 (DE3) according to b733)
# ABL1 (64-515) [2] = biological target: T1, ABL1 (64-515); test: Caliper ABL1 (64-515) microfluidic mobility shift assay; type: biochemical
# [3] = comparison of ortho substitution on R3/R4 ring
# T1 sequence (P00519 64-515): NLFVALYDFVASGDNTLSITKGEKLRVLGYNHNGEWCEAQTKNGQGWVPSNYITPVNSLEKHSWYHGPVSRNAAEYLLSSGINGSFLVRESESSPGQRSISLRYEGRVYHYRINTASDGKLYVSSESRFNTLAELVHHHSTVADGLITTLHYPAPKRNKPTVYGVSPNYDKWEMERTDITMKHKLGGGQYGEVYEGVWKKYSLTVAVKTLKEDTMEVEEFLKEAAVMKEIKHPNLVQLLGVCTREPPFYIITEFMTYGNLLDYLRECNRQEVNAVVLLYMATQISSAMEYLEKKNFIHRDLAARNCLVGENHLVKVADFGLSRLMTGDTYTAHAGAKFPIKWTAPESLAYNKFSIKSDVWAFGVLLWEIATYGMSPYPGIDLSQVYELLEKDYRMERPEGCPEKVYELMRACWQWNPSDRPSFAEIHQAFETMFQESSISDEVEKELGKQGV
Compound,IC50 (ABL1 (64-515) [1]),IC50 (ABL1 (64-515) [2]; Table of Biochemical Data),IC50 (ABL1 (64-515) [2]; [3])
"Cc1cc(-c2cc(C(=O)Nc3ccc(OC(F)(F)Cl)cc3)ccc2N2CC[C@@H](O)C2)[nH]n1 [Example 22, (R)—N-(4-(Chlorodifluoromethoxy)phenyl)-4-(3-hydroxypyrrolidin-1-yl)-3-(3-methyl-1H-pyrazol-5-yl)benzamide]",6 nM,< 0.64 nM,–
"O=C(Nc1ccc(SC(F)(F)F)nc1)c1cnc(N2CC[C@@H](O)C2)c(-c2ccn[nH]2)c1 [Example 32, (R)-6-(3-Hydroxypyrrolidin-1-yl)-5-(1H-pyrazol-5-yl)-N-(6-((trifluoromethyl)thio)pyridin-3-yl)nicotinamide]",3 nM,13 nM,–
Cc1cc(OC(F)(F)F)ccc1NC(=O)c1cnc(N2CC[C@@H](O)C2)c(-c2ccn[nH]2)c1,–,–,1800 nM
CC(C)[C@H](N)C(=O)O[C@@H]1CCN(c2ncc(C(=O)Nc3ccc(OC(F)(F)Cl)cc3)cc2-c2ccn[nH]2)C1 [Example 38],4 nM,2.5 nM,–
"O=C(Nc1ccc(OC(F)(F)F)cc1)c1ccc(N2CC[C@@H](O)C2)c(-c2ccn[nH]2)c1 [Example 1, (R)-4-(3-Hydroxypyrrolidin-1-yl)-3-(1H-pyrazol-5-yl)-N-(4-(trifluoromethoxy)phenyl)benzamide]",< 3 nM,2.2 nM,–
"O=C(Nc1ccc(OC(F)(F)F)cc1)c1cnc(N2CC[C@@H](OP(=O)(O)O)C2)c(-c2ccn[nH]2)c1 [Example 40, (R)-1-(3-(1H-Pyrazol-5-yl)-5-(4-(trifluoromethoxy)phenyl)carbamoyl)pyridin-2-yl)pyrrolidin-3-yl dihydrogen phosphate]",–,2.1 nM,–
O=C(Nc1ccc(OC(F)(F)F)cc1Cl)c1cnc(N2CC[C@@H](O)C2)c(-c2ccn[nH]2)c1,–,–,1600 nM

# Second part, the compound after the results:
IC50 (ABL1 (64-515) [1]),IC50 (ABL1 (64-515) [2]; Table of Biochemical Data),IC50 (ABL1 (64-515) [2]; [3]),Compound
3 nM,3.2 nM,–,"Cn1cc(-c2cc(C(=O)Nc3ccc(OC(F)(F)F)cc3)cnc2N2CC[C@@H](O)C2)cn1 [Example 6, (R)-6-(3-Hydroxypyrrolidin-1-yl)-5-(1-methyl-1H-pyrazol-4-yl)-N-(4-(trifluoromethoxy)phenyl)nicotinamide]"
1.3 nM,0.4 nM,–,"O=C(Nc1ccc(OC(F)(F)Cl)cc1)c1ccc(N2CC[C@@H](O)C2)c(-c2ccn[nH]2)c1 [Example 20, (R)—N-(4-(Chlorodifluoromethoxy)phenyl)-4-(3-hydroxypyrrolidin-1-yl)-3-(1H-pyrazol-5-yl)benzamide]"
9 nM,0.9 nM,–,"O=C(Nc1ccc(OC(F)(F)Cl)cc1)c1cnc(N2CC[C@@H](O)C2)c(-c2cnn(CCO)c2)c1 [Example 29, (R)—N-(4-(Chlorodifluoromethoxy)phenyl)-5-(1-(2-hydroxyethyl)-1H-pyrazol-4-yl)-6-(3-hydroxypyrrolidin-1-yl)nicotinamide]"
–,0.5 nM,–,O=C(Nc1ccc(OC(F)(F)Cl)cc1)c1cnc(N2CCC(C(=O)O)C2)c(-c2ccn[nH]2)c1 (stereo not shown) [Example 37]
3 nM,1.3 nM,–,"O=C(Nc1ccc(OC(F)(F)Cl)cc1)c1cnc(N2CC[C@@H](OP(=O)(O)O)C2)c(-c2ccn[nH]2)c1 [Example 39, (R)-1-(5-(4-(Chlorodifluoromethoxy)phenyl)carbamoyl)-3-(1H-pyrazol-5-yl)pyridin-2-yl)pyrrolidin-3-yl dihydrogen phosphate]"
2 nM,1.1 nM,–,"Cn1nccc1-c1cc(C(=O)Nc2ccc(OC(F)(F)Cl)cc2)cnc1N1CC[C@@H](O)C1 [Example 27, (R)—N-(4-(Chlorodifluoromethoxy)phenyl)-6-(3-hydroxypyrrolidin-1-yl)-5-(1-methyl-1H-pyrazol-5-yl)nicotinamide]"

# — patent US8829195B2, “Compounds and compositions for inhibiting the activity of ABL1, ABL2 and BCR-ABL1” (Novartis AG, priority 2012, dated 2014)
